Assay results as given in patent US20130150363A1, “Method of Treating Cancer Using a cMET and AXL Inhibitor and an ErbB Inhibitor” (GlaxoSmithKline, priority 2008, published 2013).

Key:
[1] = tested on: BT474 cells; assay: Cell apoptosis assays (Cell Death ELISA, Caspase-Glo 3/7), BT474; assay type: cell-based, human; settings: BT474, presence of HGF (FIG. 4)
Protocol: Cell apoptosis was measured by both a cell death ELISA method, which measures DNA fragmentation, a hallmark of apoptosis; and Caspase-Glo® 3/7 assay which detects the activity of caspase 3/7, one of the execution enzymes for apoptosis in cells.
The Cell Death ELISA^Plus kit (Roche, Mannheim, Germany) was used according to the manufacturer's instructions. Cells were seeded in 96-well plates at 10,000 per well. After 24 h, cells were dosed and grown for an additional 48 h in RPMI 1640 with 10% FBS in 5% CO2 at 37° C. Cytoplasmic fractions of control and treated cells were transferred into streptavidin-coated 96-well plates and incubated with biotinylated mouse antihistone antibody and peroxidase-conjugated mouse anti-DNA antibody at room temperature for 2 h. Absorbance was determined at 405-490 nm using a Spectra Max Gemini microplate reader (Molecular Devices, Sunnyvale, Calif.).
The Caspase-Glo® 3/7 assay (Promega) is a homogeneous luminescent assay that measures caspase-3 and -7 activities. Cells were seeded in 96-well plates at 5,000 per well. […] Caspase 3/7 activity was detected by adding luminogenic caspase-3/7 substrate, which contains the tetrapeptide sequence DEVD, in a reagent optimized for caspase activity, luciferase activity and cell lysis, according to the manufacturer's instructions.

[2] = tested on: NCI-H1573 lung carcinoma cells; assay: Cell growth inhibition (CellTiter-Glo), NCI-H1573; assay type: cell-based; settings: Homo sapiens, NCI-H1573, 72 h, 3 days
Text: Esophageal carcinoma cell line OE33 was purchased from ECACC European Collection of Cell Cultures (UK). Breast cancer cell line JIMT-1 and gastric carcinoma cell line MKN-45 were purchased from Deutsche Sammlung von Mikroorganismen and Zellkulturen GmbH (Germany); KPL-4, a human breast cancer cell line was kindly provided by Prof. J Kurebayashi (Kawasaki Medical School, Kurashiki, Japan). […] The LICR-LON-HN5 head and neck carcinoma cell line (HN5) was a gift from the Institute of Cancer Research, Surrey, U.K. HN5C12 was developed by single-cell cloning of HN5 followed by exposure to increasing concentrations of lapatinib. […] Cell growth inhibition was determined via CellTiter-Glo cell viability assays. […] BT474-J4 and HN5C12 were washed with PBS and plated in their culture media without lapatinib. […] ATP levels were determined by adding Cell Titer Glo0 (Promega), incubating for 20 minutes then the luminescent signal was read on the SpectraMax M5 plate with a 0.5 second integration time. Cell growth was calculated relative to vehicle (DMSO) treated control wells. […] Excess Over Highest Single Agent (EOHSA) is defined as a statistically significant improvement in the combination compared to the component monotherapies. […] Analysis was conducted using two-factor analysis of variance with interaction (model terms were dose of drug A, dose of drug B, and interaction between doses of drug A and B), followed by linear contrasts between each combination group and corresponding monotherapies. Analysis was conducted using SAS (version 9, provided by SAS Institute, Cary, N.C.). EOHSA at each dose was calculated as the minimum difference in average % inhibition between the combination and each monotherapy, from the appropriate ANOVA contrast. Since there are many comparisons for the % inhibition endpoint, p-value adjustment for multiple comparisons was performed. Hommel's procedure was implemented in order to improve the power while retaining […] Error Rate (FWE) control by using a sequentially rejective method. The p-values for both synergy and antagonism were calculated using this adjustment.

[3] = tested on: HCC1954 breast carcinoma cells; assay: Cell growth inhibition (CellTiter-Glo), HCC1954; assay type: cell-based; settings: Homo sapiens, HCC1954, 72 h, 3 days
Text: (§1) Esophageal carcinoma cell line OE33 was purchased from ECACC European Collection of Cell Cultures (UK). Breast cancer cell line JIMT-1 and gastric carcinoma cell line MKN-45 were purchased from Deutsche Sammlung von Mikroorganismen and Zellkulturen GmbH (Germany); KPL-4, a human breast cancer cell line was kindly provided by Prof. J Kurebayashi (Kawasaki Medical School, Kurashiki, Japan). […] The LICR-LON-HN5 head and neck carcinoma cell line (HN5) was a gift from the Institute of Cancer Research, Surrey, U.K. HN5C12 was developed by single-cell cloning of HN5 followed by exposure to increasing concentrations of lapatinib. […] Cell growth inhibition was determined via CellTiter-Glo cell viability assays. […] ATP levels were determined by adding Cell Titer Glo0 (Promega), incubating for 20 minutes then the luminescent signal was read on the SpectraMax M5 plate with a 0.5 second integration time. Cell growth was calculated relative to vehicle (DMSO) treated control wells. […] CI values were calculated with the interpolated IC50 values and the mutually non-exclusive equation derived by Chou and […](a)+Db/IC50(b)+(Da×Db)/(IC50(a)×IC50(b)) where IC50(a) is the IC50 of the inhibitor A; IC50(b) is the IC50 for the inhibitor B; […] […] EOHSA at each dose was calculated as the minimum difference in average % inhibition between the combination and each monotherapy, from the appropriate ANOVA contrast. […]

[4] = tested on: BT474 breast carcinoma cells; assay: Cell growth inhibition (CellTiter-Glo), BT474; assay type: cell-based; settings: Homo sapiens, BT-474, 72 h, 3 days
Text: Esophageal carcinoma cell line OE33 was purchased from ECACC European Collection of Cell Cultures (UK). Breast cancer cell line JIMT-1 and gastric carcinoma cell line MKN-45 were purchased from Deutsche Sammlung von Mikroorganismen and Zellkulturen GmbH (Germany); KPL-4, a human breast cancer cell line was kindly provided by Prof. J Kurebayashi (Kawasaki Medical School, Kurashiki, Japan). […] The LICR-LON-HN5 head and neck carcinoma cell line (HN5) was a gift from the Institute of Cancer Research, Surrey, U.K. HN5C12 was developed by single-cell cloning of HN5 followed by exposure to increasing concentrations of lapatinib. […] Cell growth inhibition was determined via CellTiter-Glo cell viability assays. […] BT474-J4 and HN5C12 were washed with PBS and plated in their culture media without lapatinib. […] ATP levels were determined by adding Cell Titer Glo0 (Promega), incubating for 20 minutes then the luminescent signal was read on the SpectraMax M5 plate with a 0.5 second integration time. Cell growth was calculated relative to vehicle (DMSO) treated control wells. […] EOHSA at each dose was calculated as the minimum difference in average % inhibition between the combination and each monotherapy, from the appropriate ANOVA contrast. […] The p-values for both synergy and antagonism were calculated using this adjustment.

[5] = tested on: JIMT-1 breast cancer cells; assay: Cell growth inhibition (CellTiter-Glo), JIMT-1; assay type: cell-based; settings: Homo sapiens, JIMT-1, 72 h, 3 days
Text: as §1

[6] = tested on: HT29 colon carcinoma cells; assay: Cell growth inhibition (CellTiter-Glo), HT29; assay type: cell-based; settings: Homo sapiens, HT-29, 72 h, 3 days
Text: as §1

| IC50 ([2]; lung_H1573, +HGF (2 ng/mL)) | IC50 ([2]; lung_H1573, −HGF) | IC50 ([3]; breast_HCC1954, +HGF (2 ng/mL)) | IC50 ([3]; breast_HCC1954, −HGF) | IC50 ([4]; breast_BT474, +HGF (2 ng/mL)) | IC50 ([4]; breast_BT474, −HGF) | IC50 ([5]; breast_JimT1, +HGF (2 ng/mL)) | IC50 ([5]; breast_JimT1, −HGF) | IC50 ([6]; colon_HT-29, +HGF (2 ng/mL)) | IC50 ([6]; colon_HT-29, −HGF) | SMILES | apoptosis induction (DNA fragmentation and caspase 3/7 activation) [1] |
| --- | --- | --- | --- | --- | --- | --- | --- | --- | --- | --- | --- |
| > 10 µM | 9.83 µM | 5.27 µM | 0.8 µM | 0.12 µM | 0.11 µM | > 10 µM | > 10 µM | – | – | CS(=O)(=O)CCNCc1ccc(-c2ccc3ncnc(Nc4ccc(OCc5cccc(F)c5)c(Cl)c4)c3c2)o1 [Lapatinib, N-(3-chloro-4-{[(3-fluorophenyl)methyl]oxy}phenyl)-6-[5-({[2-(methylsulfonyl)ethyl]amino}methyl)-2-furanyl]-4-quinazolinamine] | induces apoptosis |
| > 10 µM | > 10 µM | – | – | – | – | – | – | > 10 µM | > 10 µM | C#Cc1cccc(Nc2ncnc3cc(OCCOC)c(OCCOC)cc23)c1 [Erlotinib, N-(3-ethynylphenyl)-6,7-bis{[2-(methyloxy)ethyl]oxy}-4-quinazolinamine] | – |
